Laboratory results from patent US20210368793A1, “Method for Controlling PPO Resistant Weeds” (BASF SE, priority 2016, published 2021).

Columns and labels:
Assay type in all cases: in vivo
[1] = test system: Amaranthus tamariscinus (common waterhemp, AMATA), sensitive biotype (w.1); assay: Greenhouse herbicidal test, sensitive common waterhemp (w.1); conditions: for Weed control (%) w.1: sensitive biotype, scale 0 (no damage) to 100 (complete destruction)
Source text: (§1) The culture containers used were plastic flowerpots containing loamy sand with approximately 3.0% of humus as the substrate. The seeds of the test plants were sown separately for each species and/or resistant biotype. For the pre-emergence treatment, the active ingredients, which had been suspended or emulsified in water, were applied directly after sowing by means of finely distributing nozzles. The containers were irrigated gently to promote germination and growth and subsequently covered with transparent plastic hoods until the plants had rooted. This cover caused uniform germination of the test plants, unless this had been impaired by the active ingredients. For the post-emergence treatment, the test plants were first grown to a height of 3 to 15 cm, depending on the plant habit, and only then treated with the active ingredients which had been suspended or emulsified in water. For this purpose, the test plants were either sown directly and grown in the same containers, or they were first grown separately as seedlings and transplanted into the test containers a few days prior to treatment. Depending on the species, the plants were kept at 10-25° C. or 20-35° C., respectively. The test period extended over 2 to 4 weeks. During this time, the plants were tended, and their response to the individual treatments was evaluated. The evaluation was carried out by using a scale from 0 to 100. 100 means no emergence of the plants or complete destruction of at least the above-ground parts, and 0 means no damage, or normal course of growth.
(§2) The plants used in the greenhouse experiments were of the following species and biotype: […]

[2] = test system: Amaranthus tamariscinus (common waterhemp, AMATA), PPO resistant biotype 2 containing the ΔG210 mutation (w.3); assay: Greenhouse herbicidal test, PPO resistant common waterhemp biotype 2 (w.3); conditions: for activity on resistant weeds (w.3), in words: summary of the table, 2 and 4 g/ha, ΔG210 mutation; for Weed control (%) w.3: PPO resistant biotype 2 (ΔG210), scale 0 to 100
Source text: as §1, §2

[3] = test system: Amaranthus tamariscinus (common waterhemp, AMATA), PPO resistant biotype 1 containing the ΔG210 mutation (w.2); assay: Greenhouse herbicidal test, PPO resistant common waterhemp biotype 1 (w.2); conditions: for activity on resistant weeds (w.2), in words: summary of the table, 2 and 4 g/ha, ΔG210 mutation; for Weed control (%) w.2: PPO resistant biotype 1 (ΔG210), scale 0 to 100
Source text: as §1, §2

SMILES	activity on sensitive weeds (w.1), in words ([1]; summary of the table, 2 and 4 g/ha)	Weed control (%) w.1 ([1]; use rate 2 g/ha) [%]	Weed control (%) w.1 ([1]; use rate 4 g/ha) [%]	activity on resistant weeds (w.3), in words [2]	Weed control (%) w.3 ([2]; use rate 2 g/ha) [%]	Weed control (%) w.3 ([2]; use rate 4 g/ha) [%]	activity on resistant weeds (w.2), in words [3]	Weed control (%) w.2 ([3]; use rate 2 g/ha) [%]	Weed control (%) w.2 ([3]; use rate 4 g/ha) [%]
O=C1[C@H]2C[C@H](F)CN2C(=O)N1c1cc(NS(=O)(=O)CCl)c(Cl)cc1F [(I).1, profluazol]	very good activity	88	100	very good activity	80	88	very good activity	78	92
C#CCOc1cc(-n2nc3n(c2=O)CCCC3)c(Cl)cc1Cl [azafenidin, reference compound]		88	100	much weaker control of resistant in comparison to sensitive biotypes	77	77	much weaker control of resistant in comparison to sensitive biotypes	62	78
